Source: patent US20070160684A1, “Methods for increasing cancer cell chemosensitivity” (priority 2005, published 2007)

Tests used:
H2AX phosphorylation = assay: Western analysis of H2AX phosphorylation in pEBS7, YZ5, and MO59J cells; type: cell-based; details: 2 μM Dox for 2 hours
Description: pEBS7, YZ5, and MO59J cells were treated with 2 μM Dox for 2 hours, at which point cell lysates were removed and subjected to Western analyses using anti-phospho-H2AX antibodies. Control Western analyses were performed using monoclonal anti-actin antibodies.

[1] = test system: DNA-PKcs pT2609 and pS2056; assay: Western analysis of DNA-PKcs phosphorylation; type: cell-based
Description: Dox treatment has been reported to lead to rapid and transient phosphorylation of DNA-PKcs at Thr-2609 (pT2609) and Ser-2056 (pS2056), respectively (Chen 2005). Equal amounts of protein lysates from HeLa and HeLa/HMGA2 cells were treated with 2 μM or 5 μM Dox, then subjected to Western analyses using polyclonal anti-phospho-DNA-PKcs-T2609/S2056 (Dr. David Chen, Univ. of Texas Southwestern Medical Center) and monoclonal anti-DNA-PKcs antibodies (Santa Cruz, Calif.). Control lysates were treated with vehicle only. Untreated and Dox-treated MO59K (DNA-PKcs proficient) and MO59J (DNA-PKcs deficient) cells were used as an additional control to assure antibody specificity.
To confirm that HMGA2 expression is at least in part responsible for sustained DNA-PKcs pT2609 and pS2056 signals following Dox exposure, siRNA was utilized to downregulate endogenous HMGA2 expression in Hs578T cells. siRNA against HMGA2 (si-HMGA2) was described previously (Boo 2005). The sense and antisense were annealed to a working concentration of 20 μM by incubation with annealing buffer (5×: 30 mM HEPES pH 7.4, 100 mM potassium acetate, 2 mM magnesium acetate) at 90° C. for one minute followed by incubation at 37° C. for one hour. The annealed siRNA was stored at −20° C. Transfection of siRNA was performed with GeneEraser (Stratagene, Calif.) according to manufacturer's instruction. Briefly, cells were seeded to a confluency of 50% on the day of transfection. GeneEraser was pre-incubated at room temperature in serum-free medium ten minutes before the addition of siRNA. The GeneEraser/si-HMGA2 solution was then incubated at room temperature for an additional 15 minutes before addition to cells in a serum-containing medium. The cells were allowed to incubate for various time periods without any medium change post-transfection. Control cells were transfected with a scrambled siRNA. Cells were treated with Dox 48 hours after transfection.

Pa-4/HMGA2 cells [2] = assay: FACS analysis after caffeine and Dox (G2/M, sub-G1); type: cell-based; details: 4 mM caffeine or 1 μM Dox
Description: Pa-4 and Pa-4/HMGA2 cells were seeded at 50-80% confluency in 35 mm dishes and serum starved overnight to synchronize cell cycle. […] Following treatment, cells were fixed in 70% ethanol overnight, stained with 20 μg/ml propidium iodide, and subjected to FACS analysis.
Apoptosis was quantified by assessing sub-G1 cell populations.

HMGA2/Ku70/Ku80 complex = assay: Co-immunoprecipitation after Dox treatment; type: cell-based
caspase-3 and p53 = assay: Western analysis of caspase-3 cleavage and p53 levels; type: cell-based; details: Dox
Pa-4/HMGA2 cells [3] = assay: FACS cell cycle analysis (G2/M, sub-G1); type: cell-based
Description: (§1) Pa-4 and Pa-4/HMGA2 cells were seeded at 50-80% confluency in 35 mm dishes and serum starved overnight to synchronize cell cycle. Synchronized cells were treated with 1 μM Dox or vehicle for 24 hours, then fixed in 70% ethanol overnight and stained with 20 μg/ml propidium iodide. The percentage of cells in G1 versus G2/M was then determined by FACS analysis at the Norris Cancer Center Flow Cytometry Core Facility using FACSCaliber (Becton Dickinson, Franklin Lakes, N.J.).
(§2) Apoptosis of Pa-4 and Pa-4/HMGA2 cells was quantified by assessing the sub-G, cell population, a hallmark of cell apoptosis. The percentage of […] Pa-4/HMGA2 cells was increased five-fold 24 hours after Dox treatment, versus an increase of only two-fold in Pa-4 cells (FIG. 3A, panel e).

Pa-4 cells [4] = assay: FACS cell cycle analysis (G2/M, sub-G1); type: cell-based
Description: as §1, §2

[5] = in a subject; cited from earlier work
Pa-4 cells [6] = details: 4 mM caffeine or 1 μM Dox
ATM phosphorylation = assay: Western analysis of ATM phosphorylation in HeLa and HeLa/HMGA2 cells; type: cell-based; details: Dox
Description: To ascertain whether HMGA2 effects Dox-induced ATM signaling activation, phosphorylation of ATM Ser1981 and H2AX Ser139 was assayed in the presence and absence of Dox (2 μM in ATM assays, 1 μM in H2AX assays). At various timepoints after Dox treatment, cell lysates were removed and subjected to Western analyses using monoclonal anti-phospho-ATM antibodies (Ser1981), polyclonal anti-ATM antibodies (Santa Cruz Biotechnology, Santa Cruz, Calif.), monoclonal anti-phospho-H2AX antibodies ([…]) (Upstate Cell Signaling), or anti-H2AX antibodies. Control Western analyses were performed using monoclonal anti-actin antibodies. […] HeLa and HeLa/HMGA2 cells
The effect of HMGA2 on ATM and H2AX phosphorylation in HeLa cells was measured using the protocol described above. […] As for H2AX, results were similar to those observed in Pa-4 cells.

[7] = test system: ATM Ser1981 phosphorylation; assay: Western analysis of ATM phosphorylation in pEBS7 and YZ5 cells; type: cell-based; details: 2 μM Dox
Description: ATM-deficient pEBS7 cells and ATM-proficient YZ5 cells were maintained in DMEM and 10% FBS with 100 μg/ml hygromycin at 37° C. with 5% CO2. pEBS7 and YZ5 are stable clones derived from ATM-deficient fibroblasts (AT22IJE-T) with empty vector and Flag-tagged wild-type ATM, respectively (Li 2000). Cells were treated with 2 μM Dox or vehicle only. At various time points after treatment, equal amounts of protein lysates were removed and subjected to Western analyses using monoclonal anti-phospho-ATM antibodies (Ser1981) (Upstate Cell Signaling, Waltham, Mass.).

[8] = 10 μM Dox for 30 minutes, HeLa/HMGA2 cells
[9] = 1 μM Dox for 24 hours, synchronized cells

In the case of `COc1cccc2c1C(=O)c1c(O)c3c(c(O)c1C2=O)C[C@@](O)(C(=O)CO)C[C@@H]3O[C@H]1C[C@H](N)[C@H](O)[C@H](C)O1` [Dox, doxorubicin], the “induction of H2AX phosphorylation” value (H2AX phosphorylation; YZ5 cells and MO59J cells) is reported as “substantial increase in H2AX phosphorylation following Dox treatment”, the “induction of H2AX phosphorylation” value (H2AX phosphorylation; pEBS7 cells) is reported as “lack of Dox-mediated induction” and the DNA-PKcs phosphorylation signals ([1]; 2 μM or 5 μM Dox, two hours, HeLa/HMGA2 cells) is reported as “Accumulation of DNA-PKcs phosphorylation signals”. The “DNA-PKcs phosphorylation signals, Hs578T versus HCC1419” value ([1]; increasing concentrations of Dox) was “recapitulated in HMGA2-expressing Hs578T breast cancer cells, but not in HMGA2-underexpressing HCC1419 breast cancer cells”, the “apoptosis (sub-G1 cell population), single agent” value (Pa-4/HMGA2 cells [2]) was “substantially larger increase in Pa-4/HMGA2 cells” and the “cell cycle distribution / cells in G2/M, single agent” value (Pa-4/HMGA2 cells [2]; 48 hours) was “greatly increased the number of cells in G2/M phase”. The “DNA-PKcs in the immunocomplexes of Ku80” value (HMGA2/Ku70/Ku80 complex; [8]) was “enriched the amount of DNA-PKcs detected in the immunocomplexes of Ku80”, the “anti-Ku80-immunoprecipitated HMGA2” value (HMGA2/Ku70/Ku80 complex; [8]) was “decrease in anti-Ku80-immunoprecipitated HMGA2” and the “interaction of endogenous HMGA2 with Ku80/Ku70” value (HMGA2/Ku70/Ku80 complex; Dox, Hs578T cells) was “this interaction was disrupted upon Dox-treatment”. The caspase-3 cleavage fragment (caspase-3 and p53) was “increased in HeLa/HMGA2, HepG2 and Hs578T cells”, the “steady-state p53 levels” value (caspase-3 and p53; HeLa, HeLa/HMGA2, CL48, and HepG2 cells) was “increased steady-state p53 levels” and the “percentage of cells in G2/M phase” value (Pa-4/HMGA2 cells [3]; [9]) was 62.6%. The “increase in apoptosis (sub-G1 cell population)” value (Pa-4/HMGA2 cells [3]; 24 hours after Dox treatment) was “five-fold”, the “percentage of cells in G2/M phase” value (Pa-4 cells [4]; [9]) was 50.9% and the “increase in apoptosis (sub-G1 cell population)” value (Pa-4 cells [4]; 24 hours after Dox treatment) was “two-fold”. For the same compound, the “maximum cumulative dosage limited by side effects” value [5] was 450 to 550 mg, the “apoptosis (sub-G1 cell population), single agent” value (Pa-4 cells [6]) was “increase in apoptosis” and the “cell cycle distribution / cells in G2/M, single agent” value (Pa-4 cells [6]; 48 hours) was “greatly increased the number of cells in G2/M phase”. For the same compound, the ATM phosphorylation (ATM phosphorylation; HeLa cells) was “rapid phosphorylation of ATM in HeLa cells”, the ATM phosphorylation (ATM phosphorylation; HeLa/HMGA2 cells) was “no ATM phosphorylation was observed” and the “ATM Ser1981 phosphorylation” value [7] was “detected between 0.5 and 2 hours after Dox treatment”.
